Reference: patent US20260027099A1, “OPHTHALMIC COMPOSITIONS COMPRISING BILASTINE, A BETA-CYCLODEXTRIN AND AT LEAST ONE GELLING AGENT” (FAES FARMA, S.A., priority 2018, published 2026)
Where two headings read alike, the source gives them in different places.

Tests used:
[1] = Ocular in vivo biodistribution, bilastine tissue concentration by LC-MS/MS; design: species or system Dutch Belted rabbits; conditions: Dutch Belted, topical, 24 hours post-administration, rabbit, 30 μL of 0.6% w/v formulation in each eye, single occasion
Experimental: The aqueous ophthalmic formulations of bilastine were prepared at a bilastine concentration of 0.6% w/v. The excipients were as indicated above in Table 1, i.e., also comprised HPB 90 mg/mL, methylcellulose 0.1 mg/mL, sodium hyaluronate 1 mg/mL and glycerin 16.1 mg/mL.
42, 4-5 month-old Dutch Belted rabbits were selected as test subjects. The weight of the animals at treatment start was from 1.6 to 2.1 kg.
Animals received 30 μL of the ophthalmic formulation in each eye on a single occasion. The ophthalmic formulation was placed directly on both eyes of each animal by means of an automatic pipette. A new pipette tip was used for each eye.
The eyes of the test animals were not washed after instillation. Animals were weighed before administration and observed after administration to record any possible clinical sign.
Two to three animals were sacrificed at each time point (0.5, 1, 2, 4, 6, 8, 12 and 24 hours) and the following tissues from both eyes were collected: Aqueous humor, vitreous humor, cornea, conjunctiva, iris/ciliary body, crystalline lens and retina/choroid. Directly after sampling, all solid matrices were weighed (4 decimal precision) to determine the amount of each tissue collected.
Bilastine concentration was determined by LC-MS/MS.
Bilastine analyses were performed according to analytical methods: • PKH/MOA/1022 for rabbit plasma, • PKH/MOA/1042 for rabbit aqueous humor, • PKH/MOA/1043 for rabbit vitreous humor, • PKH/MOA/1028 for rabbit cornea homogenate, • PKH/MOA/1041 for rabbit iris/ciliary body homogenate, • PKH/MOA/1036 for rabbit conjunctiva homogenate, • PKH/MOA/1032 for rabbit crystalline lens homogenate, • PKH/MOA/1029 for rabbit retina/choroid homogenate, which were previously developed and validated at Eurofins|ADME BIOANALYSES according to the Guidance for Industry—Bioanalytical Method Validation—FDA May 2018 and EMA Guideline—EMEA/CHMP/EWP/192217/2009—21 Jul. 2011, in the studies 18-014A to 18-014H.
The analytical methods involved protein precipitation for plasma and involved dilution for other matrices followed by LC-MS/MS analysis using F21201RR (Bilastine-d6) as internal standard.

[2] = tested on: histamine-induced conjunctival vascular permeability; conditions: topical drug administered 2 to 8 hours before subconjunctival histamine challenge; Evans blue dye i.v.; cited from earlier work

concentration at 24 h ([1]; conjunctiva, read-out: bilastine concentration in conjunctiva (mean value)): 388 ng/g | concentration at 24 h ([1]; cornea, read-out: bilastine concentration in cornea (mean value)): 28.7 ng/g | concentration at 24 h ([1]; crystalline lens, read-out: bilastine concentration in crystalline lens): 0.12 ng/g | concentration at 24 h ([1]; iris/ciliary body, read-out: bilastine concentration in iris/ciliary body): 12.4 ng/g | concentration at 24 h ([1]; retina/choroid, read-out: bilastine concentration in retina/choroid): 1.91 ng/g
SMILES: CCOCCn1c(C2CCN(CCc3ccc(C(C)(C)C(=O)O)cc3)CC2)nc2ccccc21 [bilastine, 2-[4-(2-{4-[1-(2-Ethoxyethyl)-1H-benzimidazol-2-yl]-1-piperidinyl}ethyl)phenyl]-2-methylpropanoic acid]
ED50 (in vivo anti-histaminic activity) [2]: 50% efficacy was not achieved
